Key:
[1] = test system: Erysiphe graminis f.sp. hordei; assay: Direct protectant activity against barley powdery mildew (EGP); assay type: in vivo; conditions: direct protectant foliar spray, 8 days
Procedure, shortened: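 Rating reflects percentage of leaf area with sporulation compared with untreated or diluent-sprayed controls. Protectant spray was applied to single-leaf barley (cv Golden Promise) 24 h before conidia inoculation. Plants were kept at 18 °C and 40% RH throughout, with 8 days of disease development.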

Venturia inaequalis = assay: Activity against apple scab in-vitro (VII); assay type: cell-based; conditions: 10 ppm, 10 days, 20° C., mycelial growth
Procedure, shortened: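 V. inaequalis propagules (5×10^4/ml, malt agar-grown) were exposed in half-strength PDB to 10 ppm final test compound delivered in acetone. Growth was scored after incubation for 10 days at 20° C, as a rating relative to untreated or diluent-sprayed controls.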

[2] = test system: Erysiphe graminis f.sp. hordei; assay: Activity against barley powdery mildew, direct therapeutic (EGT); assay type: in vivo; conditions: direct therapeutic foliar spray, 600 ppm, up to 7 days
Procedure, shortened: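 A curative spray at 600 ppm was applied to single-leaf Golden Promise barley inoculated with powdery mildew conidia the previous day. After up to 7 days at 18 °C and 40% humidity, disease control was rated from percent leaf area sporulating relative to untreated or diluent-sprayed controls.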

Leptosphaeria nodorum = assay: Activity against wheat leafspot (LN); assay type: in vivo; conditions: direct therapeutic foliar spray, 600 ppm, 6-8 days
Procedure, shortened: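 Therapeutic foliar spray: compound at 600 ppm applied to single-leaf wheat (cv Norman) 24 h after inoculation with 1.5×10^6 conidia/ml. Disease control scored after 6-8 days at 22° C and 70% humidity as lesions per leaf versus untreated or diluent-sprayed controls.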

Botrytis cinerea = assay: Direct protectant activity against broad bean grey mould (BCB); assay type: in vivo; conditions: direct protectant foliar spray, 600 ppm, 4 days
Procedure, shortened: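 Protectant foliar test: lesion coverage assessed 4 days after inoculation and rated relative to untreated or diluent-sprayed plants. Compound applied at 600 ppm to cv The Sutton leaves 24 h before 10^6 conidia/ml suspension; incubation at 22 °C in high humidity.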

Phytophthora infestans = assay type: in vivo; conditions: tomato, direct protectant foliar spray
[3] = test system: Pseudocercosporella herpotrichoides; assay: Activity against wheat eyespot in-vitro (PHI); assay type: cell-based; conditions: 10 ppm, 10 days, 20° C., mycelial growth
Procedure, shortened: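 Mycelial growth was scored after 10 days at 20 °C against untreated or diluent controls. The broth was half-strength potato dextrose, holding 10 ppm test compound (from acetone) and 5×10^4 fragments/ml of the eyespot fungus.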

Pyricularia oryzae = assay type: in vivo; conditions: rice seedlings, direct therapeutic foliar spray, 600 ppm, 4-5 days
Plasmopara viticola = assay: Antisporulant activity against vine downy mildew (PVA); assay type: in vivo; conditions: vine leaves, antisporulant foliar spray, 600 ppm, 750 l/ha
Procedure, shortened: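 Cabernet Sauvignon vines (~8 cm) inoculated on lower leaf surfaces with 5×10^4 zoosporangia/ml, held 24 h at 21° C high humidity then 24 h glasshouse. Infected leaves sprayed underside with 600 ppm compound in 1:1 water/acetone, 0.04% Tween 20, 750 l/ha; 96 h glasshouse, 24 h humidity. Sporulating leaf area rated versus control.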

Rhizoctonia solani = assay: Activity against Rhizoctonia in-vitro (RSI); assay type: cell-based; conditions: 10 ppm, 10 days, 20° C., mycelial growth
Procedure, shortened: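 Compound at a final 10 ppm (acetone vehicle) in half-strength PDB, inoculated with 5×10^4 fragments/ml of shaken-culture R. solani mycelium. After incubation at 20° C for 10 days, growth scored as a rating versus untreated or diluent-treated controls.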

Alternaria solani = assay: Activity against tomato early blight (AS); assay type: in vivo; conditions: Table VI; tomato seedlings, contact prophylactic foliar spray, 4 days
Procedure, shortened: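 Plants were challenged with A. solani conidia (10^4 spores/ml) 24 h after a protective foliar spray of compound in 50:50 acetone/water plus 0.04% Tween 20. Held humid at 21° C for 4 days, then percent leaf area with lesions was scored as a rating relative to controls.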

SMILES | disease control rating EGP [1] | disease control rating VII (Venturia inaequalis) | disease control rating EGT [2] | disease control rating LN (Leptosphaeria nodorum) | disease control rating BCB (Botrytis cinerea) | disease control rating PIP (Phytophthora infestans) | disease control rating PHI [3] | disease control rating PO (Pyricularia oryzae) | disease control rating PVA (Plasmopara viticola) | disease control rating RSI (Rhizoctonia solani) | disease control rating AS (Alternaria solani)
CC1CN(C2COC3(CCCCC3)C2)CC(C)O1 (centres unmarked) [Compound 36] | 2 (greater than 80% disease control) | 1 (about 50-80% disease control) | 2 (greater than 80% disease control) | 0 (less than 50% disease control) | 0 (less than 50% disease control) | 0 (less than 50% disease control) | 0 (less than 50% disease control) | 0 (less than 50% disease control) | 0 (less than 50% disease control) | 0 (less than 50% disease control) | 0 (less than 50% disease control)
CCCCCCNC1COC2(CCC(C(C)(C)C)CC2)C1 (centres unmarked) [Compound 37] | 2 (greater than 80% disease control) | 0 (less than 50% disease control) | 2 (greater than 80% disease control) | 0 (less than 50% disease control) | 1 (about 50-80% disease control) | 0 (less than 50% disease control) | 1 (about 50-80% disease control) | 0 (less than 50% disease control) | 0 (less than 50% disease control) | 0 (less than 50% disease control) | 0 (less than 50% disease control)
CCCCCCNC1COC2(CCC(C(C)(C)C)CC2)C1 (centres unmarked) [Compound 38] | 2 (greater than 80% disease control) | 0 (less than 50% disease control) | 2 (greater than 80% disease control) | 0 (less than 50% disease control) | 0 (less than 50% disease control) | 0 (less than 50% disease control) | 2 (greater than 80% disease control) | 0 (less than 50% disease control) | 0 (less than 50% disease control) | 1 (about 50-80% disease control) | 2 (greater than 80% disease control)
CCCCCCNC1COC2(CCC(C(C)(C)C)CC2)C1 (centres unmarked) [Compound 39] | 2 (greater than 80% disease control) | 0 (less than 50% disease control) | 2 (greater than 80% disease control) | 0 (less than 50% disease control) | 0 (less than 50% disease control) | 0 (less than 50% disease control) | 1 (about 50-80% disease control) | 0 (less than 50% disease control) | 0 (less than 50% disease control) | 0 (less than 50% disease control) | 2 (greater than 80% disease control)
CCCCCCNC1COC2(CCC(C(C)(C)C)CC2)C1 (centres unmarked) [Compound 40] | 2 (greater than 80% disease control) | 0 (less than 50% disease control) | 2 (greater than 80% disease control) | 0 (less than 50% disease control) | 0 (less than 50% disease control) | 0 (less than 50% disease control) | 1 (about 50-80% disease control) | 0 (less than 50% disease control) | 0 (less than 50% disease control) | 0 (less than 50% disease control) | 2 (greater than 80% disease control)
CCCCCCNC1COC2(CCC(C(C)(C)C)CC2)C1 (centres unmarked) [Compound 41] | 2 (greater than 80% disease control) | 0 (less than 50% disease control) | 2 (greater than 80% disease control) | 1 (about 50-80% disease control) | 0 (less than 50% disease control) | 0 (less than 50% disease control) | 1 (about 50-80% disease control) | 0 (less than 50% disease control) | 0 (less than 50% disease control) | 0 (less than 50% disease control) | 0 (less than 50% disease control)
CCCCCCCCCCNC1COC2(CCC(C(C)(C)C)CC2)C1 (centres unmarked) [Compound 42] | 2 (greater than 80% disease control) | 2 (greater than 80% disease control) | 2 (greater than 80% disease control) | 0 (less than 50% disease control) | 0 (less than 50% disease control) | 0 (less than 50% disease control) | 1 (about 50-80% disease control) | 0 (less than 50% disease control) | 0 (less than 50% disease control) | 0 (less than 50% disease control) | 0 (less than 50% disease control)
CCCCCCCCCCCCNC1COC2(CCC(C(C)(C)C)CC2)C1 (centres unmarked) [Compound 43] | 2 (greater than 80% disease control) | 2 (greater than 80% disease control) | 2 (greater than 80% disease control) | 2 (greater than 80% disease control) | 0 (less than 50% disease control) | 0 (less than 50% disease control) | 0 (less than 50% disease control) | 0 (less than 50% disease control) | 0 (less than 50% disease control) | 0 (less than 50% disease control) | 0 (less than 50% disease control)
CCCCCCCCCCCCCCNC1COC2(CCC(C(C)(C)C)CC2)C1 (centres unmarked) [Compound 44] | 2 (greater than 80% disease control) | 0 (less than 50% disease control) | 2 (greater than 80% disease control) | 0 (less than 50% disease control) | 0 (less than 50% disease control) | 0 (less than 50% disease control) | 0 (less than 50% disease control) | 0 (less than 50% disease control) | 0 (less than 50% disease control) | 0 (less than 50% disease control) | 0 (less than 50% disease control)
CCCCCCCCCCCCCCCCNC1COC2(CCC(C(C)(C)C)CC2)C1 (centres unmarked) [Compound 45] | 2 (greater than 80% disease control) | 0 (less than 50% disease control) | 2 (greater than 80% disease control) | 0 (less than 50% disease control) | 0 (less than 50% disease control) | 0 (less than 50% disease control) | 0 (less than 50% disease control) | 0 (less than 50% disease control) | 0 (less than 50% disease control) | 0 (less than 50% disease control) | 0 (less than 50% disease control)
